In the assay the target is CREBBP (Homo sapiens (Human), UniProt Q92793). The assay is described as follows: In vitro enzyme inhibition assay - CREBBP inhibition (AlphaScreen, biotinylated H4-tetraacetyl peptide). In kind it is binding. As to conditions: Table 28; AlphaScreen, H4-tetraacetyl peptide. A digest of the protocol: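 Displacement of 20 nM biotinylated tetraacetyl-H4 peptide from 50 nM E. coli-expressed His-CREBBP, measured by AlphaScreen after bead equilibration for 2 h.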
Chain of CREBBP (Q92793 1081-1197): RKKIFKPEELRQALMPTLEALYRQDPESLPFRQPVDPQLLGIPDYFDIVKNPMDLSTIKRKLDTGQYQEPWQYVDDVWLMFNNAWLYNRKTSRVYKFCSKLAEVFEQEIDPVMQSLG

`Cc1cccc(F)c1Oc1nc(NC2CCCc3ccccc32)cc(-c2ccc(=O)n(C)c2)n1` (centres unmarked) [Example 280, 5-(2-(2-fluoro-6-methylphenoxy)-6-((1,2,3,4-tetrahydronaphthalen-1-yl)amino)pyrimidin-4-yl)-1-methylpyridin-2(1H)-one] yielded an IC50 below 500 nM.

Compound `Cc1cccc(F)c1Oc1nc(NC(C)C)cc(-c2ccc(=O)n(C)c2)n1` [Example 281, 5-(2-(2-fluoro-6-methylphenoxy)-6-(isopropylamino)pyrimidin-4-yl)-1-methylpyridin-2(1H)-one] returned an IC50 below 500 nM.

The compound `Cc1cccc(Cl)c1Oc1nc(NC(C)c2ccccc2)cc(-c2ccc(=O)n(C)c2)n1` (centres unmarked) [Example 282, 5-(2-(2-chloro-6-methylphenoxy)-6-((1-phenylethyl)amino)pyrimidin-4-yl)-1-methylpyridin-2(1H)-one] had an IC50 below 500 nM.

The compound `Cc1cccc(Cl)c1Oc1nc(NC(C)C)cc(-c2ccc(=O)n(C)c2)n1` [Example 283, 5-(2-(2-chloro-6-methylphenoxy)-6-(isopropylamino)pyrimidin-4-yl)-1-methylpyridin-2(1H)-one] showed an IC50 below 500 nM.

`Cc1cccc(Cl)c1Oc1nc(NC2CCCC2)cc(-c2ccc(=O)n(C)c2)n1` [Example 284, 5-(2-(2-chloro-6-methylphenoxy)-6-(cyclopentylamino)pyrimidin-4-yl)-1-methylpyridin-2(1H)-one]: the IC50 is below 500 nM.

`Cc1cccc(F)c1Oc1nc(NC2CCCC2)cc(-c2ccc(=O)n(C)c2)n1` [Example 285, 5-(6-(cyclopentylamino)-2-(2-fluoro-6-methylphenoxy)pyrimidin-4-yl)-1-methylpyridin-2(1H)-one] displayed an IC50 below 500 nM.

Take `Cc1cccc(F)c1Oc1nc(NCC2CCCc3ccccc32)cc(-c2ccc(=O)n(C)c2)n1` (centres unmarked) [Example 286, 5-(2-(2-fluoro-6-methylphenoxy)-6-(((1,2,3,4-tetrahydronaphthalen-1-yl)methyl)amino)pyrimidin-4-yl)-1-methylpyridin-2(1H)-one]: the IC50 is below 500 nM.

For `Cc1cccc(F)c1Oc1nc(N[C@H]2CCc3ccccc32)cc(-c2ccc(=O)n(C)c2)n1` [Example 287, (S)-5-(6-((2,3-dihydro-1H-inden-1-yl)amino)-2-(2-fluoro-6-methylphenoxy)pyrimidin-4-yl)-1-methylpyridin-2(1H)-one], the IC50 is below 500 nM.

For `Cc1cccc(C(C)Nc2cc(-c3ccc(=O)n(C)c3)nc(Oc3c(C)cccc3F)n2)n1` (centres unmarked) [Example 288, 5-(2-(2-fluoro-6-methylphenoxy)-6-((1-(6-methylpyridin-2-yl)ethyl)amino)pyrimidin-4-yl)-1-methylpyridin-2(1H)-one], the IC50 was below 500 nM.

Regarding `Cc1cccc(CNc2cc(-c3ccc(=O)n(C)c3)nc(Oc3c(C)cccc3F)n2)n1` [Example 289, 5-(2-(2-fluoro-6-methylphenoxy)-6-(((6-methylpyridin-2-yl)methyl)amino)pyrimidin-4-yl)-1-methylpyridin-2(1H)-one], the IC50 was below 500 nM.

As for `Cc1ccc(CNc2cc(-c3ccc(=O)n(C)c3)nc(Oc3c(C)cccc3F)n2)cn1` [Example 290, 5-(2-(2-fluoro-6-methylphenoxy)-6-(((6-methylpyridin-3-yl)methyl)amino)pyrimidin-4-yl)-1-methylpyridin-2(1H)-one], the IC50 is below 500 nM.

Take `CCNc1cc(-c2ccc(=O)n(C)c2)nc(Oc2c(C)cccc2F)n1` [Example 291, 5-[6-Ethylamino-2-(2-fluoro-6-methyl-phenoxy)-pyrimidin-4-yl]-1-methyl-1H-pyridin-2-one]: the IC50 is below 500 nM.

The compound `Cc1cccc(F)c1Oc1nc(NCc2ccccc2)cc(-c2ccc(=O)n(C)c2)n1` [Example 292, 5-[6-Benzylamino-2-(2-fluoro-6-methyl-phenoxy)-pyrimidin-4-yl]-1-methyl-1H-pyridin-2-one] displayed an IC50 below 500 nM.

With `Cc1cccc(F)c1Oc1nc(-c2ccc(=O)n(C)c2)cc(N(C)Cc2ccccc2)n1` [Example 293, 5-[6-(Benzyl-methyl-amino)-2-(2-fluoro-6-methyl-phenoxy)-pyrimidin-4-yl]-1-methyl-1H-pyridin-2-one], the IC50 is below 500 nM.

In turn, `Cc1cccc(F)c1Oc1nc(N)cc(-c2cc(C)c(=O)n(C)c2)n1` [Example 294, 5-[6-Amino-2-(2-fluoro-6-methyl-phenoxy)-pyrimidin-4-yl]-1,3-dimethyl-1H-pyridin-2-one] came in with an IC50 below 500 nM.

The compound `CCNc1cc(-c2cc(C)c(=O)n(C)c2)nc(Oc2c(C)cccc2F)n1` [Example 295, 5-[6-Ethylamino-2-(2-fluoro-6-methyl-phenoxy)-pyrimidin-4-yl]-1,3-dimethyl-1H-pyridin-2-one] came in with a half-inhibitory concentration (IC50) below 500 nM.

Regarding `Cc1cccc(F)c1Oc1nc(NCc2ccccc2)cc(-c2cc(C)c(=O)n(C)c2)n1` [Example 296, 5-[6-Benzylamino-2-(2-fluoro-6-methyl-phenoxy)-pyrimidin-4-yl]-1,3-dimethyl-1H-pyridin-2-one], the half-maximal inhibitory concentration (IC50) was below 500 nM.

In turn, `Cc1cccc(F)c1Oc1nc(-c2cc(C)c(=O)n(C)c2)cc(N(C)Cc2ccccc2)n1` [Example 297, 5-[6-(Benzyl-methyl-amino)-2-(2-fluoro-6-methyl-phenoxy)-pyrimidin-4-yl]-1,3-dimethyl-1H-pyridin-2-one] showed an IC50 below 500 nM.

`Cc1cccc(F)c1Oc1nc(NC(C)c2ccccc2)cc(-c2ccc(=O)n(C)c2)n1` (centres unmarked) [Example 298, 5-[2-(2-Fluoro-6-methyl-phenoxy)-6-(1-phenyl-ethylamino)-pyrimidin-4-yl]-1-methyl-1H-pyridin-2-one] yielded an IC50 below 500 nM.

Regarding `Cc1ccccc1C(C)Nc1cc(-c2ccc(=O)n(C)c2)nc(Oc2c(C)cccc2F)n1` (centres unmarked) [Example 299, 5-[2-(2-Fluoro-6-methyl-phenoxy)-6-(1-o-tolyl-ethylamino)-pyrimidin-4-yl]-1-methyl-1H-pyridin-2-one], the IC50 is below 500 nM.

In the case of `Cc1cccc(C)c1CNc1cc(-c2ccc(=O)n(C)c2)nc(Oc2c(C)cccc2F)n1` [Example 300, 5-[6-(2,6-Dimethyl-benzylamino)-2-(2-fluoro-6-methyl-phenoxy)-pyrimidin-4-yl]-1-methyl-1H-pyridin-2-one], the IC50 is below 500 nM.

`Cc1ccc(C)c(CNc2cc(-c3ccc(=O)n(C)c3)nc(Oc3c(C)cccc3F)n2)c1` [Example 301, 5-[6-(2,5-Dimethyl-benzylamino)-2-(2-fluoro-6-methyl-phenoxy)-pyrimidin-4-yl]-1-methyl-1H-pyridin-2-one] showed an IC50 below 500 nM.

Turning to `Cc1cccc(F)c1Oc1nc(NCc2ccccn2)cc(-c2ccc(=O)n(C)c2)n1` [Example 302, 5-{2-(2-Fluoro-6-methyl-phenoxy)-6-[(pyridin-2-ylmethyl)-amino]-pyrimidin-4-yl}-1-methyl-1H-pyridin-2-one], the IC50 is below 500 nM.

Compound `Cc1cccc(F)c1Oc1nc(NCc2cccnc2)cc(-c2ccc(=O)n(C)c2)n1` [Example 303, 5-{2-(2-Fluoro-6-methyl-phenoxy)-6-[(pyridin-3-ylmethyl)-amino]-pyrimidin-4-yl}-1-methyl-1H-pyridin-2-one] came in with an IC50 below 500 nM.

For `CCCCNc1cc(-c2ccc(=O)n(C)c2)nc(Oc2c(C)cccc2F)n1` [Example 304, 5-[6-Butylamino-2-(2-fluoro-6-methyl-phenoxy)-pyrimidin-4-yl]-1-methyl-1H-pyridin-2-one], the IC50 is below 500 nM.

Take `CCC[C@@H](C)Nc1cc(-c2ccc(=O)n(C)c2)nc(Oc2c(C)cccc2F)n1` [Example 305]: the half-inhibitory concentration (IC50) is below 500 nM.

In turn, `Cc1cccc(F)c1Oc1nc(N[C@H](C)c2ccccc2)cc(-c2ccc(=O)n(C)c2)n1` [Example 306, (R)-5-[2-(2-Fluoro-6-methyl-phenoxy)-6-(1-phenyl-ethylamino)-pyrimidin-4-yl]-1-methyl-1H-pyridin-2-one] gave an IC50 below 500 nM.

For the compound `Cc1cccc(F)c1Oc1nc(N[C@@H]2CCCc3ccccc32)cc(-c2ccc(=O)n(C)c2)n1` [Example 307, (R)-5-[2-(2-Fluoro-6-methyl-phenoxy)-6-(1,2,3,4-tetrahydro-naphthalen-1-ylamino)-pyrimidin-4-yl]-1-methyl-1H-pyridin-2-one], the IC50 was below 500 nM.

Compound `CCC[C@H](C)Nc1cc(-c2ccc(=O)n(C)c2)nc(Oc2c(C)cccc2F)n1` [Example 308] gave an IC50 below 500 nM.

`Cc1cccc(F)c1Oc1nc(NCCC(C)C)cc(-c2ccc(=O)n(C)c2)n1` [Example 309, 5-[2-(2-Fluoro-6-methyl-phenoxy)-6-(3-methyl-butylamino)-pyrimidin-4-yl]-1-methyl-1H-pyridin-2-one] gave an IC50 below 500 nM.

On to `Cc1cccc(F)c1Oc1nc(N[C@@H](C)c2ccccc2)cc(-c2ccc(=O)n(C)c2)n1` [Example 310, (S)-5-[2-(2-Fluoro-6-methyl-phenoxy)-6-(1-phenyl-ethylamino)-pyrimidin-4-yl]-1-methyl-1H-pyridin-2-one], for which the IC50 was below 500 nM.

On to `Cc1cccc(F)c1Oc1nc(N[C@H]2CCCc3ccccc32)cc(-c2ccc(=O)n(C)c2)n1` [Example 311, (S)-5-[2-(2-Fluoro-6-methyl-phenoxy)-6-(1,2,3,4-tetrahydro-naphthalen-1-ylamino)-pyrimidin-4-yl]-1-methyl-1H-pyridin-2-one], for which the IC50 was below 500 nM.

As to `CCCCNc1cc(-c2ccc(=O)n(C)c2)nc(Oc2c(C)cccc2Cl)n1` [Example 312, 5-[6-Butylamino-2-(2-chloro-6-methyl-phenoxy)-pyrimidin-4-yl]-1-methyl-1H-pyridin-2-one], the IC50 is below 500 nM.

The compound `CCC[C@@H](C)Nc1cc(-c2ccc(=O)n(C)c2)nc(Oc2c(C)cccc2Cl)n1` [Example 313, (R)-5-[2-(2-Chloro-6-methyl-phenoxy)-6-(1-methyl-butylamino)-pyrimidin-4-yl]-1-methyl-1H-pyridin-2-one] displayed an IC50 below 500 nM.

The compound `CCC[C@H](C)Nc1cc(-c2ccc(=O)n(C)c2)nc(Oc2c(C)cccc2Cl)n1` [Example 314, (S)-5-[2-(2-Chloro-6-methyl-phenoxy)-6-(1-methyl-butylamino)-pyrimidin-4-yl]-1-methyl-1H-pyridin-2-one] yielded an IC50 below 500 nM.

The values above are taken from patent publication US10202360B2 (CELGENE QUANTICEL RESEARCH, INC., priority 2016, dated 2019).
